Experimental data reported in patent US9328138B2 (priority 2011, dated 2016).
Structures can show the parent of a compound that is named as a salt.

Experiments:
[1] = molecular target: T1, HCV genotype 1b (BK) NS3 modified enzyme with a R155K mutation (Hepatitis C virus genotype 1b, UniProt P26663, R1181K); test: HCV NS3 protease time-resolved fluorescence (TRF) assay, genotype 1b R155K; assay type: biochemical; details: Ki 1b R155K
T1 construct: HCV genotype 1b (BK) NS3 modified enzyme
Outline: (§1)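 Time-resolved fluorescence, ex 340/em 615 nm, 400 μs delay; IC50 by four-parameter fit. Enzyme preincubated with compound 10 min, then TRF substrate 25 nM final added and reaction run 6 h at RT. Buffer HEPES pH 7.5 with NaCl, glycerol, Triton X-100, DTT, PEG 8000.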

[2] = molecular target: HCV NS3 protease genotype 3a (3A-1) (Hepatitis C virus genotype 3a, UniProt Q81258); test: HCV NS3 protease time-resolved fluorescence (TRF) assay, genotype 3a; assay type: biochemical; details: Ki 3a
Outline: as §1

[3] = genotype 1b (BK) NS3 R155K, single value
[4] = first of two values printed in the cell (not explained)
[5] = second of two values printed in the cell (not explained)

Structure (SMILES)	Ki [1, 3]	Ki [2]	Ki [1, 4]	Ki [1, 5]
C=C[C@@H]1C[C@]1(NC(=O)[C@@H]1C[C@@H]2CN1C(=O)[C@H](C(C)(C)C)NC(=O)O[C@@H]1C[C@H]1CCCCCc1c(nc3c(OC)cccc3c1OCCCN1CCCC1)O2)C(=O)NS(=O)(=O)C1(C)CC1 [Example 143, (1aR,5S,8S,10R,22aR)-5-tert-butyl-N-[(1R,2S)-2-ethenyl-1-{[(1-methylcyclopropyl)sulfonyl]carbamoyl}cyclopropyl]-13-methoxy-3,6-dioxo-17-[3-(pyrrolidin-1-yl)propoxy]-1,1a,3,4,5,6,9,10,18,19,20,21,22,22a-tetradecahydro-8H-7,10-methanocyclopropa[18,19][1,10,3,6]dioxadiazacyclononadecino[11,12-b]quinoline-8-carboxamide]	0.059 nM	0.64 nM		
CC1(S(=O)(=O)NC(=O)[C@@]23C[C@H]2/C=C\CCCCC[C@@H]2NC(=O)O[C@@H]4C[C@H]4CCC/C=C/c4c(nc5ccccc5c4OCCN4CCCC4)O[C@@H]4C[C@@H](C(=O)N3)N(C4)C2=O)CC1 [Example 299, (1aR,5S,11Z,12aS,13aR,16S,19R,27E, 31aR)-N-[(1-methylcyclopropyl)sulfonyl]-3,15,33-trioxo-26-[2-(pyrrolidin-1-yl)ethoxy]-1,1a,3,4,5,6,7,8,9,10,12a,13,15,16,18,19,29, 30,31,31a-icosahydro-5,17:16,19-dimethanodicyclopropa[12,13:28,29][1,20,3, 14,17]dioxatriazacyclononacosino[21,22-b]quinoline-13a(14H)-carboxamide]	0.19 nM	3.8 nM		
C=C[C@@H]1C[C@]1(NC(=O)[C@@H]1C[C@@H]2CN1C(=O)[C@H](C(C)(C)C)NC(=O)O[C@@H]1C[C@H]1CCCCCc1c(nc3ccccc3c1OCCCN1CCCCC1c1nc3cc(F)ccc3[nH]1)O2)C(=O)NS(=O)(=O)C1(C)CC1 (stereo partly drawn) [Example 203, (1aR,5S,8S,10R,22aR)-5-tert-butyl-N-[(1R,2S)-2-ethenyl-1-{[(1-methylcyclopropyl)sulfonyl]carbamoyl}cyclopropyl]-17-{3-[2-(5-fluoro-1H-benzimidazol-2-yl)piperidin-1-yl]propoxy}-3,6-dioxo-1,1a,3,4,5,6,9,10,18,19,20, 21,22,22a-tetradecahydro-8H-7,10-methanocyclopropa[18,19][1,10,3,6] dioxadiazacyclononadecino[11,12-b] quinoline-8-carboxamide]	0.13 nM	4.9 nM		
C=C[C@@H]1C[C@]1(NC(=O)[C@@H]1C[C@@H]2CN1C(=O)[C@H](C1CCCC1)NC(=O)O[C@@H]1CCC[C@H]1CC/C=C/Cc1c(nc3ccccc3c1OCCN1CCOC1=O)O2)C(=O)NS(=O)(=O)C1CC1 [Example 42, (3aR,7S,10S,12R,21E,24aS)-7-cyclopentyl-N-{(1R,2S)-1-[(cyclopropylsulfonyl)carbamoyl]-2-ethenylcyclopropyl}-5,8-dioxo-19-[2-(2-oxo-1,3-oxazolidin-3-yl)ethoxy]-1,2,3,3a,5,6,7,8,11,12,20,23,24,24a-tetradecahydro-10H-9,12-methanocyclopenta[18,19][1,10,3,6]dioxadiazacyclononadecino[11,12-b]quinoline-10-carboxamide]	0.073 nM	1.5 nM		
C=C[C@@H]1C[C@]1(NC(=O)[C@@H]1C[C@@H]2CN1C(=O)[C@H](C(C)(C)C)NC(=O)O[C@@H]1C[C@H]1CCCCCc1c(nc3ccccc3c1OCCCN1CC(F)C1)O2)C(=O)NS(=O)(=O)C1(C)CC1 [Example 155, (1aR,5S,8S,10R,22aR)-5-tert-butyl-N-[(1R,2S)-2-ethenyl-1-{[(1-methylcyclopropyl)sulfonyl]carbamoyl}cyclopropyl]-17-[3-(3-fluoroazetidin-1-yl)propoxy]-3,6-dioxo-1,1a,3,4,5,6,9,10,18,19,20, 21,22,22a-tetradecahydro-8H-7,10-methanocyclopropa[18,19][1,10,3,6] dioxadiazacyclononadecino [11,12-b]quinoline-8-carboxamide]	0.11 nM	1.4 nM		
C=C[C@@H]1C[C@]1(NC(=O)[C@@H]1C[C@@H]2CN1C(=O)[C@H](C(C)(C)C)NC(=O)O[C@@H]1C[C@H]1CCCCCc1c(nc3ccccc3c1OCCc1cccnc1)O2)C(=O)NS(=O)(=O)C1(C)CC1 [Example 218, (1aR,5S,8S,10R,22aR)-5-tert-butyl-N-[(1R,2S)-2-ethenyl-1-{[(1-methylcyclopropyl)sulfonyl]carbamoyl}cyclopropyl]-3,6-dioxo-17-[2-(pyridin-3-yl)ethoxy]-1,1a,3,4,5,6,9,10,18,19,20,21,22,22a-tetradecahydro-8H-7,10-methanocyclopropa[18,19][1,10,3,6] dioxadiazacyclononadecino[11,12-b]quinoline-8-carboxamide]	0.035 nM	2.6 nM		
C=C[C@@H]1CC1(NC(=O)[C@@H]1C[C@@H]2CN1C(=O)[C@H](C(C)(C)C)NC(=O)O[C@@H]1C[C@H]1CCCCCc1c(nc3ccccc3c1OC1C3CNCC1COC3)O2)C(=O)NS(=O)(=O)C1(C)CC1 (single isomer, unassigned) [Example 258, trifluoroacetate]		2.75 nM	0.012 nM	0.079 nM
C=C[C@@H]1C[C@]1(NC(=O)[C@@H]1C[C@@H]2CN1C(=O)[C@H](C(C)(C)C)NC(=O)O[C@@H]1C[C@H]1CCCCCc1c(nc3ccccc3c1OC1CC3CCC(C1)N3)O2)C(=O)NS(=O)(=O)C1(C)CC1 (single isomer, unassigned) [Example 279, trifluoroacetate]		2.6 nM	0.012 nM	0.145 nM
C=C[C@@H]1C[C@]1(NC(=O)[C@@H]1C[C@@H]2CN1C(=O)[C@H](C1CCCC1)NC(=O)O[C@@H]1CCC[C@H]1CC/C=C/Cc1c(nc3ccccc3c1OCCO)O2)C(=O)NS(=O)(=O)C1CC1 [Example 69, (3aR,7S,10S,12R,21E,24aS)-7-cyclopentyl-N-{(1R,2S)-1-[(cyclopropylsulfonyl)carbamoyl]-2-ethenylcyclopropyl}-19-(2-hydroxyethoxy)-5,8-dioxo-1,2,3,3a,5,6,7,8,11,12,20,23,24,24a-tetradecahydro-10H-9,12-methanocyclopenta[18,19][1,10,3,6]dioxadiazacyclononadecino[11,12-b]quinoline-10-carboxamide]	< 0.016 nM	1.8 nM		
C=C[C@@H]1C[C@]1(NC(=O)[C@@H]1C[C@@H]2CN1C(=O)[C@H](C1CCCCC1)NC(=O)O[C@@H]1C[C@H]1CCCCCc1c(nc3ccccc3c1OC1CCN(CCS(C)(=O)=O)CC1)O2)C(=O)NS(=O)(=O)C1(C)CC1 [Example 271, (1aR,5S,8S,10R,22aR)-5-cyclohexyl-N-[(1R,2S)-2-ethenyl-1-{[(1-methylcyclopropyl)sulfonyl]carbamoyl}cyclopropyl]-17-({1-[2-(methylsulfonyl)ethyl]piperidin-4-yl}oxy)-3,6-dioxo-1,1a,3,4,5,6,9,10,18,19,20,21,22,22a-tetradecahydro-8H-7,10-methanocyclopropa[18,19][1,10,3,6]dioxadiazacyclononadecino[11,12-b]quinoline-8-carboxamide]		5.2 nM	0.023 nM	0.215 nM
C=C[C@@H]1C[C@]1(NC(=O)[C@@H]1C[C@@H]2CN1C(=O)[C@H](C1CCCC1)NC(=O)O[C@@H]1CCC[C@H]1CC/C=C/Cc1c(nc3ccccc3c1OP(=O)(OCC)OCC)O2)C(=O)NS(=O)(=O)C1CC1 [Example 38, (3aR,7S,10S,12R,21E,24aS)-7-cyclopentyl-10-({(1R,2S)-1-[(cyclopropylsulfonyl)carbamoyl]-2-ethenylcyclopropyl}carbamoyl)-5,8-dioxo-1,2,3,3a,5,6,7,8,11,12,20,23,24,24a-tetradecahydro-10H-9,12-methanocyclopenta[18,19][1,10,3,6]dioxadiazacyclononadecino[11,12-b]quinolin-19-yl diethyl phosphate]	1.2 nM	94 nM		
C=CC1C[C@]1(NC(=O)[C@@H]1C[C@@H]2CN1C(=O)[C@H](C1CCCC1)NC(=O)O[C@@H]1CCC[C@H]1CC/C=C/Cc1c(nc3ccccc3c1OCCN1CCCCC1)O2)C(=O)NS(=O)(=O)C1CC1 (stereo partly shown) [Example 81]	0.29 nM	4.6 nM		
C=C[C@@H]1C[C@]1(NC(=O)[C@@H]1C[C@@H]2CN1C(=O)[C@H](C1CCCC1)NC(=O)O[C@@H]1CCC[C@H]1CC/C=C/Cc1c(nc3ccccc3c1OCCOC)O2)C(=O)NS(=O)(=O)C1CC1 [Example 46, (3aR,7S,10S,12R,21E,24aS)-7-cyclopentyl-N-{(1R,2S)-1-[(cyclopropylsulfonyl)carbamoyl]-2-ethenylcyclopropyl}-19-(2-methoxyethoxy)-5,8-dioxo-1,2,3,3a,5,6,7,8,11,12,20,23,24,24a-tetradecahydro-10H-9,12-methanocyclopenta[18,19][1,10,3,6] dioxadiazacyclononadecino[11,12-b] quinoline-10-carboxamide]	0.15 nM	4 nM		
C=C[C@@H]1C[C@]1(NC(=O)[C@@H]1C[C@@H]2CN1C(=O)[C@H](C1CCCCC1)NC(=O)O[C@@H]1C[C@H]1CCCCCc1c(nc3ccccc3c1OC1CC3COCC(C1)N3CC)O2)C(=O)NS(=O)(=O)C1(C)CC1 (stereo partly drawn) [Example 290, 7-{[(1aR,5S,8S,10R,22aR)-5-cyclohexyl-8-{[(1R,2S)-2-ethenyl-1-{[(1-methylcyclopropyl)sulfonyl]carbamoyl}cyclopropyl]carbamoyl}-3,6-dioxo-1,1a,3,4,5,6,9,10,18,19,20,21,22,22a-tetradecahydro-8H-7,10-methanocyclopropa[18,19][1,10,3,6]dioxadiazacyclononadecino[11,12-b]quinolin-17-yl]oxy}-9-ethyl-3-oxa-9-azoniabicyclo[3.3.1]nonane formate]		1.14 nM	0.012 nM	0.125 nM
CC[C@@H]1C[C@]1(NC(=O)[C@@H]1C[C@@H]2CN1C(=O)[C@H](C1CCCC1)NC(=O)OC1(C)CCCC1CCCCCc1c(nc3ccccc3c1O)O2)C(=O)NS(=O)(=O)C1CC1 (single isomer, unassigned) [Example 32]	0.54 nM	9.2 nM		
